Assay [1] deals with WHHL rabbit aortic tissue (intima). The assay is described as follows: Resected WHHL rabbit aortic tissue peptide binding assay. The note with it: for positive binding / staining on WHHL tissue samples: five to seven tissue samples per peptide; for staining on WHHL tissue, original versus randomized sequence: one experiment on a WHHL rabbit, FIGS. 14 and 15; for staining on WHHL aortic tissue: overall statement across experiments; for staining of corresponding WHHL tissue samples: sections FIG. 10(c) (peptide 4) and FIG. 11(a) (peptide 3); for staining of individual WHHL tissue sections: sections FIG. 10(d) (peptide 4) and FIG. 11(b) (peptide 3). As to the method: (§1) Experiments were performed to determine if the synthesized peptides could bind to the intima of the WHHL (diseased) rabbits but not to the NZW (control) rabbits. The following procedure is shown schematically in FIG. 2. The animals were anesthetized, injected with 0.7-1.0 mL heparin, and perfused with 200-300 mL Hanks buffered salt solution containing 1% BSA. A segment of the aorta comprising the aortic arch to the bifurcation of the aorta in the lower abdomen was removed and placed in a buffer solution of Hanks w/1% BSA and 1% protease inhibitor cocktail (Sigma, P8340). The aorta segments were opened longitudinally and sliced into individual pieces approximately 1-2 mm^2 each. These pieces were then placed into tubes containing individual peptides at a concentration of 5 μg/mL in the same buffer solution described above.
(§2) The tissue sections were incubated with individual peptides for 45-60 minutes at room temperature. Samples were washed 3× with PBS followed by incubation with SA-HRP or anti-FLAG-HRP in the same buffer for 45-60 minutes at room temperature. After another 3× washing, the samples were incubated with DAB for 30 minutes in the same buffer. After a final round of washing, tissue samples were imaged with a dissecting microscope and analyzed for the presence of brown staining on the endothelial surface. […] Some tissue sections received no peptide incubation; rather they were exposed only to SA-HRP or anti-FLAG-HRP as a control.

A further assay deals with lipid-loaded HAECs. The assay is described as follows: Lipid-loaded HAEC peptide binding assay. In kind it is cell-based, human. The following applies: peptide 1, 5 or 100 μg/mL; SA-HRP or anti-FLAG-HRP with DAB. As to the method:
Human aortic endothelial cells (HAECs) were loaded with acetylated low-density lipoprotein as described herein. Peptide binding assays were performed 24 hours after the third lipid-loading of the cells. Control cells grown in the standard media without added lipid were cultured for the same amount of time as the lipid-loaded HAECs.
The general procedure for the peptide binding assays was conducted as follows (see FIG. 1). Variations on this method will be discussed as well. Both the lipid- and non-lipid-loaded cells were imaged prior to the assays to verify morphological differences between the two conditions of the cells. The media was aspirated and cells were washed 3× with cold wash buffer (PBS w/Ca^2+, […] with 2% FBS), followed by a 5 minute incubation on ice to minimize internalization of peptides. Cold blocking buffer (PBS w/1% BSA) was added to the cells for 15 minutes to prevent nonspecific binding. Peptides were then added to the cells in cold blocking buffer at 1, 5, or 100 μg/mL and incubated for 1 hour on ice. Following incubation, cells were washed 3×, and either streptavidin horseradish peroxidase (SA-HRP) or anti-FLAG horseradish peroxidase (anti-FLAG-HRP) was added to the cells in cold blocking buffer at the recommended concentrations provided by the manufacturers. […]

For assay [2], the system named is atherosclerotic lesion endothelium of ApoE knockout mice. The note with it: mouse; cited from earlier work.
Assay [3] has as its system frozen WHHL aorta tissue sections. The assay is described as follows: Direct staining on frozen WHHL rabbit tissue sections. The format is binding. The following applies: for staining of frozen WHHL aorta tissue sections: peptide 1 μg/mL, 4 μm sections, FIG. 22. As for the experimental part: Some of the resected WHHL and NZW aortic arch tissues were frozen and sectioned into 4 μm slices. Binding assays were performed on these frozen sections in a similar manner to that described herein. Sections were thawed and incubated with blocking buffer (Hanks w/1% BSA) for 30 minutes. Individual peptides were added to the slides in blocking buffer at a concentration of 1 μg/mL. After 45 minutes of incubation, the slides were washed and either SA-HRP or anti-FLAG-HRP, depending on the modification of the peptides, was added at the recommended concentration and allowed to incubate for 1 hour. The slides were washed again, and the DAB substrate was added and incubated for 30 minutes while looking for brown color development. After washing away the DAB, the tissue samples were fixed with 10% buffered formalin for 10 minutes followed by counterstaining with hemotoxylin. The slides were then mounted with permount and glass coverslips for imaging. The standard SA-HRP and anti-FLAG-HRP controls were performed for these experiments as well.

For assay [4], the system named is NZW rabbit aortic tissue (intima). The assay is described as follows: Resected NZW rabbit aortic tissue peptide binding assay. The following applies: for staining / binding on NZW tissue: peptide 9 at 1× concentration, FIG. 12. As for the experimental part:
as §1, §2

The test system of assay [5] is WHHL rabbit aortic tissue (intima). The assay is described as follows: Resected WHHL rabbit aortic tissue peptide binding assay.
In assay [6] the test system is aorta of ApoE knockout mice. The assay is described as follows: ApoE knockout mice in vivo peptide binding assay. More on the design: species or system mouse. The note with it: 1 hour circulation, SA-HRP or anti-FLAG-HRP with DAB. As to the method: In the peptide binding assays, individual peptides are injected into an anesthetized mouse and allowed to circulate in vivo for 1 hour. Note that this is different from the WHHL/NZW binding assays where the aorta is first resected and then incubated with peptide. The animal is then fixed via cardiac perfusion with 4% formaldehyde, and the aorta is removed to test for binding of the peptide. The detection assay is the same assay described herein: either SA-HRP or anti-FLAG-HRP is added to the solution containing the resected tissue, followed by the addition of the DAB substrate, after which the tissue samples are sectioned and imaged.

Where [7] appears, read: 10× concentration (˜100 μg/mL) versus 1×, FIG. 13.

The values that follow come from patent publication US20100129289A1, “COMPOSITIONS AND METHODS FOR THE DETECTION OF VULNERABLE PLAQUE” (THE OHIO STATE UNIVERSITY RESEARCH FOUNDATION, priority 2006, published 2010).

“Also recorded” adds a separate entry of the source. Ends that are not written are not given here. * marks the point of attachment. Biotin = O=C1N[C@H]2[C@H](CS[C@H]2CCCCC(=O)*)N1

APHYLKTAPPPN [Peptide 28]: the “positive binding / staining on WHHL tissue samples” value (“positive binding / staining” for short) in assay [1] (Exp219 (FIG. 20)) was “some staining”.
For the substance Biotin-PPEEWSPVTHLL [Peptide 3R], the “staining on WHHL tissue, original versus randomized sequence” value in assay [1] is “much less staining compared to the original sequences”.
Same read-out and setting: to Biotin-RNPGYTYHIALG [Peptide 4R] belongs “much less staining compared to the original sequences”.
With CDSIKWPNC [Peptide 23], in the assay with lipid-loaded HAECs, the “binding to lipid-loaded HAECs (brown staining)” value is reported as “negative result for binding”.
As for CHPASSPQC [Peptide 34], the “positive binding / staining” value in assay [1] (Exp223 (FIG. 21)) was “some staining”.
On to CKQSFEKSC [Peptide 1], for which the “positive binding / staining” value in assay [1] (Exp201 (FIG. 18)) was “showed staining on one tissue sample”.
With CKQSPPSMC [Peptide 14], the “positive binding / staining” value in assay [1] (Exp217 (FIG. 19)) is “stained”.
CKSDANSHC [Peptide 2]: the “positive binding / staining” value in assay [1] (Exp217 (FIG. 19)) was “stained”.
Consider “CNHRYMQMC [Peptide 11, reference compound]”, for which the “binding to atherosclerotic lesion endothelium of ApoE knockout mice in vivo” value in assay [2] is recorded as “shown to bind”. In assay [1] (Exp201 (FIG. 18)), the “positive binding / staining” value is “showed staining on one tissue sample”.
Turning to CNKNSIPHC [Peptide 20], in assay [1] (Exp201 (FIG. 18)), the “positive binding / staining” value was “showed staining on one tissue sample”.
CVMPGLKNC [Peptide 10]: the “positive binding / staining” value in assay [1] (Exp201 (FIG. 18)) is recorded as “showed staining on one tissue sample”.
In the case of “ILTHEHTLPKQ-FLAG (ILTHEHTLPKQ-{FLAG}) [Peptide 9R]”, the “staining of frozen WHHL aorta tissue sections” value in assay [3] is “no staining; also recorded: no binding”.
As for KSLSRHDHIHHH [Peptide 16], the “positive binding / staining” value in assay [1] (Exp217 (FIG. 19)) is on record as “stained”.
Take NADNQMTWRHVL [Peptide 38]: the “positive binding / staining” value in assay [1] (Exp223 (FIG. 21)) is “some staining”.
With NLTSLTQGSAML [Peptide 39], in assay [1] (Exp223 (FIG. 21)), the “positive binding / staining” value is given as “some staining”.
“SIGYPLP [Peptide 13, reference compound]”: the “positive binding / staining” value in assay [1] (Exp217 (FIG. 19)) was “stained”.
For SSLPAPPWPLRG [Peptide 6], the “positive binding / staining” value in assay [1] (Exp201 (FIG. 18)) is “showed staining on one tissue sample”; in assay [1] (Exp217 (FIG. 19)), “slight staining”.
Regarding SSSKMQAAHQLP [Peptide 24], the results for the “positive binding / staining” value in assay [1] (Exp201 (FIG. 18)) and in assay [1] (Exp219 (FIG. 20)) were “showed staining on one tissue sample” and “some staining”, respectively.
TAPHHSTPANVP [Peptide 17]: in the assay with lipid-loaded HAECs, the “binding to lipid-loaded HAECs (brown staining)” value is listed as “negative result for binding”.
TDTTMGQVHRHP [Peptide 37]: in assay [1] (Exp223 (FIG. 21)), the “positive binding / staining” value is recorded as “some staining”.
Take TPLEVHPESLPW [Peptide 3]: the “staining / binding on NZW tissue” value in assay [4] is given as “no binding”. Besides, in assay [1], the “staining on WHHL aortic tissue” value is listed as “above-average reproducible staining”; the “staining of corresponding WHHL tissue samples” value is “very little, if any, brown staining”; the “staining of individual WHHL tissue sections” value is given as “best staining”.
With TQTPIKHHLLKE [Peptide 9], the “binding to frozen tissue samples” value in assay [3] (frozen WHHL and NZW tissue) was “showed binding”. Besides, in assay [3], the “staining of frozen WHHL aorta tissue sections” value was “strong brown staining on the surface; also recorded: stains the intimal surface”. In addition, the “staining on NZW tissue at 10-fold increased concentration” value in assay [4] (setting [7]) is recorded as “remains the same as the staining seen with the 1× concentration”. The “staining / binding on NZW tissue” value in assay [4] was “some slight staining; also recorded: light, distinct staining pattern; also recorded: slight background staining”. Besides, the “staining on WHHL aortic tissue relative to anti-FLAG-HRP control sections” value in assay [5] (1× concentration (˜10 μg/mL), FIGS. 8 and 9, two WHHL rabbits) was “more total staining, and the staining is very distinct”. Moreover, the “staining on WHHL tissue at 10-fold increased concentration” value in assay [5] (setting [7]) was “increases dramatically”. Moreover, the “binding to regions of plaque, dependence on dose” value in assay [1] (WHHL aortic tissue) was “dose-dependent manner”. The “location of staining in sectioned WHHL aorta” value in assay [1] (histological sections, Hoechst stain, 400×, FIG. 16) was “localized to the intimal layer, with no infiltration into the plaque region; also recorded: localized to the intimal layer of the aorta”. Besides, the “staining over plaque versus non-plaque regions of WHHL aorta” value in assay [1] (histological sections, FIG. 17) was “present on intima covering regions of plaque but not over non-plaque regions; also recorded: seen over plaque-rich regions”. In addition, in assay [1], the “staining on WHHL tissue, original versus randomized sequence” value was “stronger than the staining seen from peptide 9R” and the “staining on WHHL aortic tissue” value was “consistently shows staining”. Moreover, in assay [6], the “binding to aorta after in vivo circulation of peptide” value was “did not yield positive results”.
For the substance TSPQTKDC [Peptide 7], the “positive binding / staining” value in assay [1] (Exp201 (FIG. 18)) is reported as “showed staining on one tissue sample”; in assay [1] (Exp217 (FIG. 19)) it was “slight staining”. In addition, in assay [6], the “binding to aorta after in vivo circulation of peptide” value is “did not yield positive results”.
As to YITPYAHLRGGN [Peptide 4], the “staining / binding on NZW tissue” value in assay [4] is listed as “no binding”. Also, in assay [1], the “staining on WHHL aortic tissue” value was “above-average reproducible staining”; the “staining of corresponding WHHL tissue samples” value is “very little, if any, brown staining”; the “staining of individual WHHL tissue sections” value was “good staining”.
